In patent US10709724B2, “Methods of treating mitochondrial dysfunction” (Ecole Polytechnique Federale de Lausanne (EPFL), priority 2011, dated 2020):

System: C57Bl/6J male mice
Assay: PJ34 treatment of mice (5 days)
Assay type: in vivo
Conditions: 10 mg/kg i.p. twice a day
Protocol: Animal Experiments. Male PARP-1^+/+ and PARP-1^−/− mice on a pure C57Bl/6J background (Menissier-de Murcia et al., 1997) were used. Mice were housed separately, had ad libitum access to water and standard rodent chow (10 kcal % of fat, Safe, Augy, France) or to a high calorie, high fat diet (60 kcal % of fat, Research. Diets, New Brunswick, N.J., USA), and were kept under a 12 h dark-light cycle. In other animal experiments, 8 weeks-old male C57Bl/6J mice were purchased from Charles River and powder chow (D12450B) and high fat (D12492) diets were from Research Diets Inc (New Brunswick, N.J., USA). 80 ml of water per kg of powder CD were used to make food pellets. 40 ml of water per kg of powder HFD were used to make food pellets. For NR, NMN and NA supplemented diets, the appropriate amount of these compounds was added to the water used to create the pellets, taking into account the differences in the daily intake of each diet. Mice were housed separately, had ad libitum access to water and food and were kept under a 12 h dark-light cycle. Mice were fed with homemade pellets from 10 weeks of age. To make the pellets, the powder food was mixed with water (vehicle) or with NR. All animal experiments were carried out according to local national and EU ethical guidelines. To monitor body weight, mice were weighed and the food consumption was measured each week on the same day. In case of PJ34 treatment, mice received each 12 h (at 7:00 and 19:00) 10 mg/kg PJ34 by intraperitoneal injection for 5 continuous days. In all studies animals were killed (at 14:00) either after CO2 inhalation or cervical dislocation after 6 h of fasting (starting at 8:00), and tissues were collected and processed as specified below. Oral glucose tolerance test, intraperitoneal insulin tolerance test, free fatty acid (FFA) and triglycerides were determined as described (Lagouge et al., 2006). Plasma insulin and was determined in heparinized plasma samples using specific ELISA kits (Mercodia). Blood samples were collected in heparinized tubes and plasma was isolated after centrifugation. Plasma parameters were measured using a Cobas c111 (Roche Diagnostics). Thermoadaptation was performed as described (Lagouge et al., 2006). We measured O2 consumption, CO2 production, and spontaneous locomotor activity in an open circuit indirect calorimetry system (Sabre systems, Las Vegas, Nev., USA) over 24-48 has described (Dali-Youcef et al., 2007; Lagouge et al., 2006; Watanabe et al., 2006). […] The respiratory quotient was the ratio of CO2 production over O2 consumption. During actimetry, beamline crossings were summarized each 15 minutes. […] Euglycemic-hyperinsulinemic clamps were performed in PARP-1^−/− and ^+/+ male mice (n=4 mice per genotype; age=4 months) exactly as previously described (Feige et al, 2008).
mRNA and mtDNA Analysis. Total RNA was prepared using TRIzol (Invitrogen) according to the manufacturer's instructions. RNA was treated with DNase, and 2 μg of RNA was used for reverse transcription (RT). cDNA was purified on QIAquick PCR cleanup columns (Qiagen, Valencia, Calif., USA). 50× diluted cDNA was used for RT-quantitative PCR (RT-VCR) VCR) reactions (Bai et al., 2007). The RT-qPCR reactions were performed using the Light-Cycler system (Roche Applied Science) and a qPCR Supermix (Qiagen) with the primers for mice summarized in Table 1 and 4, and with the primers for worms summarized on Table 7. mtDNA quantification was performed as described (Lagouge et al., 2006) with the primers indicated in Table 2 and 5.
Immunoprecipitation, SDS-PAGE, Western Blotting. Cells were lysed in lysis buffer (50 mM Tris, […], EDTA 1 mM, NP40 1%, nicotinamide 5 mM, Na-butyrate 1 in M, protease inhibitors pH7.4). Proteins were separated by SDS-PAGE and transferred onto nitrocellulose membranes. The origin of the primary and secondary antibodies used can be found as supplemental experimental procedures. […]

## CN(C)CC(=O)Nc1ccc2[nH]c(=O)c3ccccc3c2c1 [PJ34]
  Dio2 mRNA in BAT: significantly induced
  Myoglobin mRNA levels in muscle: increase in Myoglobin mRNA levels
  NAD+ levels in BAT and muscle: edged up in PJ34-treated animals, even though the increase was only statistically significant in muscle
  PARP activity in BAT and muscle: robustly decrease PARP activity
  PGC-1α acetylation levels in BAT and muscle: reduced PGC-1α acetylation levels
  mitochondrial gene expression in BAT and muscle (Ndufa2, Ndufa5, UCP2, UCP3): tendency to a higher expression of a number of mitochondrial genes
Vehicle 1.21±0.08, p=0.08
  triglycerides: 1.11 ± 0.04 mM
Vehicle 1.59±0.06, p=0.03
  free fatty acid levels: 1.44±0.03 mEq/L
Vehicle 9.94±0.28, p=0.05
  blood glucose: 9.19 ± 0.58 mM
